From ChEMBL document CHEMBL3885861, “Open TG-GATES”

Species on record: Rattus norvegicus
Experiment: Open TG-GATES - Regimen: Single
Format: toxicity, organism-based, Sprague-Dawley
Parameters: regimen Single, gender Male, age 6 weeks
Details: in vivo, po, 0 mg/kg, route gavage, dose level Control; for APTT / Bas / Eos / Fbg / Hb / Ht / Lym / MCH / MCHC / MCV / Mono / Neu / PT / Plat / RBC / Ret / WBC: tissue Blood; for KIDNEY_L / KIDNEY_R / KIDNEY_TOTAL: tissue Kidney; for LIVER: tissue Liver; for ALP / ALT / AST / CRE / DBIL / GLC / IP / K / LDH / Na / PL / RALB / TBIL / TC / TP / gamma-GTP: tissue Plasma

Clc1ccccc1CN1CCc2sccc2C1 [TICLOPIDINE]
TERMINAL_BW (3 h): 208.4 g
APTT (3 h): 18.6 s
Bas (3 h): 0%
Eos (3 h): 1%
Fbg (3 h): 221.2 mg/dL
Hb (3 h): 13.2 g/dL
Ht (3 h): 37.6%
Lym (3 h): 73.2%
MCH (3 h): 21.1 pg
MCHC (3 h): 35%
MCV (3 h): 60.3 fL
Mono (3 h): 3%
Neu (3 h): 21.8%
PT (3 h): 11.9 s
Plat (3 h): 123.5 x10_4/uL
RBC (3 h): 623.4 x10_4/ul
Ret (3 h): 7.9%
WBC (3 h): 82.6 x10_2/uL
KIDNEY_L (3 h): 0.9 g
KIDNEY_R (3 h): 0.9 g
KIDNEY_TOTAL (3 h): 1.9 g
LIVER (3 h): 9.5 g
ALP (3 h): 806 IU/L
ALT (3 h): 37.4 IU/L
AST (3 h): 69.2 IU/L
CRE (3 h): 0.4 mg/dL
DBIL (3 h): 0.07 mg/dL
GLC (3 h): 204.6 mg/dL
IP (3 h): 9.8 mg/dL
K (3 h): 3.9 meq/L
LDH (3 h): 129.2 IU/L
Na (3 h): 141.2 meq/L
PL (3 h): 142.4 mg/dL
RALB (3 h): 3.3 g/dL
TBIL (3 h): 0.1 mg/dL
TC (3 h): 79.2 mg/dL
TP (3 h): 5.4 g/dL
gamma-GTP (3 h): 1.2 IU/L
TERMINAL_BW (6 h): 208.2 g
APTT (6 h): 18.7 s
Bas (6 h): 0.2%
Eos (6 h): 1%
Fbg (6 h): 214.6 mg/dL
Hb (6 h): 13.4 g/dL
Ht (6 h): 38.1%
Lym (6 h): 73%
MCH (6 h): 21.3 pg
MCHC (6 h): 35.2%
MCV (6 h): 60.3 fL
Mono (6 h): 3%
Neu (6 h): 21.4%
PT (6 h): 12 s
Plat (6 h): 123.6 x10_4/uL
RBC (6 h): 632.8 x10_4/ul
Ret (6 h): 7.7%
WBC (6 h): 93.2 x10_2/uL
KIDNEY_L (6 h): 1 g
KIDNEY_R (6 h): 0.9 g
KIDNEY_TOTAL (6 h): 1.9 g
LIVER (6 h): 9.1 g
ALP (6 h): 821 IU/L
ALT (6 h): 32.4 IU/L
AST (6 h): 68 IU/L
CRE (6 h): 0.4 mg/dL
DBIL (6 h): 0.074 mg/dL
GLC (6 h): 183.2 mg/dL
IP (6 h): 9.3 mg/dL
K (6 h): 3.9 meq/L
LDH (6 h): 170.8 IU/L
Na (6 h): 141.4 meq/L
PL (6 h): 126.8 mg/dL
RALB (6 h): 3.2 g/dL
TBIL (6 h): 0.1 mg/dL
TC (6 h): 70.8 mg/dL
TP (6 h): 5.3 g/dL
gamma-GTP (6 h): 1 IU/L
TERMINAL_BW (9 h): 205.8 g
APTT (9 h): 17.9 s
Bas (9 h): 0%
Eos (9 h): 1%
Fbg (9 h): 222 mg/dL
Hb (9 h): 13.3 g/dL
Ht (9 h): 37.5%
Lym (9 h): 78.2%
MCH (9 h): 21.5 pg
MCHC (9 h): 35.6%
MCV (9 h): 60.5 fL
Mono (9 h): 2%
Neu (9 h): 17.8%
PT (9 h): 12.3 s
Plat (9 h): 131.6 x10_4/uL
RBC (9 h): 620 x10_4/ul
Ret (9 h): 7.6%
WBC (9 h): 87.2 x10_2/uL
KIDNEY_L (9 h): 0.9 g
KIDNEY_R (9 h): 0.9 g
KIDNEY_TOTAL (9 h): 1.8 g
LIVER (9 h): 7.9 g
ALP (9 h): 871.4 IU/L
ALT (9 h): 33.4 IU/L
AST (9 h): 65.6 IU/L
CRE (9 h): 0.4 mg/dL
DBIL (9 h): 0.072 mg/dL
GLC (9 h): 193.8 mg/dL
IP (9 h): 10 mg/dL
K (9 h): 3.7 meq/L
LDH (9 h): 128.4 IU/L
Na (9 h): 141.8 meq/L
PL (9 h): 130.8 mg/dL
RALB (9 h): 3.3 g/dL
TBIL (9 h): 0.1 mg/dL
TC (9 h): 74 mg/dL
TP (9 h): 5.4 g/dL
gamma-GTP (9 h): 1 IU/L
TERMINAL_BW (24 h): 221.4 g
APTT (24 h): 20.8 s
Bas (24 h): 0.8%
Eos (24 h): 0.8%
Fbg (24 h): 228.6 mg/dL
Hb (24 h): 13.7 g/dL
Ht (24 h): 38.7%
Lym (24 h): 75%
MCH (24 h): 21.5 pg
MCHC (24 h): 35.4%
MCV (24 h): 60.7 fL
Mono (24 h): 3.6%
Neu (24 h): 19.2%
PT (24 h): 11.9 s
Plat (24 h): 130.5 x10_4/uL
RBC (24 h): 638 x10_4/ul
Ret (24 h): 6.5%
WBC (24 h): 110.6 x10_2/uL
KIDNEY_L (24 h): 1 g
KIDNEY_R (24 h): 1 g
KIDNEY_TOTAL (24 h): 1.9 g
LIVER (24 h): 10.1 g
ALP (24 h): 880.2 IU/L
ALT (24 h): 43.8 IU/L
AST (24 h): 73.6 IU/L
CRE (24 h): 0.4 mg/dL
DBIL (24 h): 0.074 mg/dL
GLC (24 h): 198.2 mg/dL
IP (24 h): 8.5 mg/dL
K (24 h): 3.7 meq/L
LDH (24 h): 142.2 IU/L
Na (24 h): 141.8 meq/L
PL (24 h): 134.2 mg/dL
RALB (24 h): 3.4 g/dL
TBIL (24 h): 0.1 mg/dL
TC (24 h): 70 mg/dL
TP (24 h): 5.5 g/dL
gamma-GTP (24 h): 1 IU/L
